Reference: BindingDB's records for patent US20240034743 (Qilu Pharmaceutical, 2024)

Experiments:
[1] = biological target: Epidermal growth factor receptor (Homo sapiens, UniProt P00533); assay: Not found
Text: Not found

[2] = biological target: Epidermal growth factor receptor [L858R,T790M,C797S] (Homo sapiens, UniProt P00533, C797S/L858R/T790M); assay: Not found
Text: Not found

Sequence of Epidermal growth factor receptor (P00533 whole entry): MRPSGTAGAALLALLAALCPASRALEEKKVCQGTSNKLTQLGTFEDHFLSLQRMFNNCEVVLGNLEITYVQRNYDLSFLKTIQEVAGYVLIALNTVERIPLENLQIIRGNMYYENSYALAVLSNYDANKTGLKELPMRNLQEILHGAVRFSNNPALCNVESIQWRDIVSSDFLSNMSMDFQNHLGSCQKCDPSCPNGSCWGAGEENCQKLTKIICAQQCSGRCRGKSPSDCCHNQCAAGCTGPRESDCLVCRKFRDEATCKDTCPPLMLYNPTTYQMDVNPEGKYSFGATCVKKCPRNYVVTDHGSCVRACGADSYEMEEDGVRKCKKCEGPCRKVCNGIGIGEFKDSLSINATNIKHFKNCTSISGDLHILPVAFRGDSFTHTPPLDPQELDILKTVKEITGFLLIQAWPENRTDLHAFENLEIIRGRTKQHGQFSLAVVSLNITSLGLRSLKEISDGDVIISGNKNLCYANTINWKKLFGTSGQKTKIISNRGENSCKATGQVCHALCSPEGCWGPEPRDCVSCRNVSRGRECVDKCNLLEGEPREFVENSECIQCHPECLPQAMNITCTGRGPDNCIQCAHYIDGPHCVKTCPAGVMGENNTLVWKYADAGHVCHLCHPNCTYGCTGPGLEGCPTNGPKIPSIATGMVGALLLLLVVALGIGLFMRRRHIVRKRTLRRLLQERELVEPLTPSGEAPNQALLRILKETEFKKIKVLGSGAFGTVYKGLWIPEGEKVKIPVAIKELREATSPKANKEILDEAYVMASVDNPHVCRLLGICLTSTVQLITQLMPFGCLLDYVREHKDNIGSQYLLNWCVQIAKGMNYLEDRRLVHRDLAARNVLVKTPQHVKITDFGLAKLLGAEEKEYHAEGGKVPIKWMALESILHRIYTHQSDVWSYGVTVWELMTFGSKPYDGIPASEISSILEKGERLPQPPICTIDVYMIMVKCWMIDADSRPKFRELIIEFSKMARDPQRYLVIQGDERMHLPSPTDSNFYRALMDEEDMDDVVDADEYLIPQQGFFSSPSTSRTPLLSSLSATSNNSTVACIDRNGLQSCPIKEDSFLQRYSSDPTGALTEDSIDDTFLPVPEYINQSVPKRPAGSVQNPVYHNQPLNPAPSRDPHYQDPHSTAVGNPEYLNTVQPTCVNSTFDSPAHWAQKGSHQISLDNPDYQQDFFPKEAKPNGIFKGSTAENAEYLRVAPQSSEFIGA
Sequence of Epidermal growth factor receptor [L858R,T790M,C797S] (P00533 25-1210 T790M/C797S/L858R limits assumed): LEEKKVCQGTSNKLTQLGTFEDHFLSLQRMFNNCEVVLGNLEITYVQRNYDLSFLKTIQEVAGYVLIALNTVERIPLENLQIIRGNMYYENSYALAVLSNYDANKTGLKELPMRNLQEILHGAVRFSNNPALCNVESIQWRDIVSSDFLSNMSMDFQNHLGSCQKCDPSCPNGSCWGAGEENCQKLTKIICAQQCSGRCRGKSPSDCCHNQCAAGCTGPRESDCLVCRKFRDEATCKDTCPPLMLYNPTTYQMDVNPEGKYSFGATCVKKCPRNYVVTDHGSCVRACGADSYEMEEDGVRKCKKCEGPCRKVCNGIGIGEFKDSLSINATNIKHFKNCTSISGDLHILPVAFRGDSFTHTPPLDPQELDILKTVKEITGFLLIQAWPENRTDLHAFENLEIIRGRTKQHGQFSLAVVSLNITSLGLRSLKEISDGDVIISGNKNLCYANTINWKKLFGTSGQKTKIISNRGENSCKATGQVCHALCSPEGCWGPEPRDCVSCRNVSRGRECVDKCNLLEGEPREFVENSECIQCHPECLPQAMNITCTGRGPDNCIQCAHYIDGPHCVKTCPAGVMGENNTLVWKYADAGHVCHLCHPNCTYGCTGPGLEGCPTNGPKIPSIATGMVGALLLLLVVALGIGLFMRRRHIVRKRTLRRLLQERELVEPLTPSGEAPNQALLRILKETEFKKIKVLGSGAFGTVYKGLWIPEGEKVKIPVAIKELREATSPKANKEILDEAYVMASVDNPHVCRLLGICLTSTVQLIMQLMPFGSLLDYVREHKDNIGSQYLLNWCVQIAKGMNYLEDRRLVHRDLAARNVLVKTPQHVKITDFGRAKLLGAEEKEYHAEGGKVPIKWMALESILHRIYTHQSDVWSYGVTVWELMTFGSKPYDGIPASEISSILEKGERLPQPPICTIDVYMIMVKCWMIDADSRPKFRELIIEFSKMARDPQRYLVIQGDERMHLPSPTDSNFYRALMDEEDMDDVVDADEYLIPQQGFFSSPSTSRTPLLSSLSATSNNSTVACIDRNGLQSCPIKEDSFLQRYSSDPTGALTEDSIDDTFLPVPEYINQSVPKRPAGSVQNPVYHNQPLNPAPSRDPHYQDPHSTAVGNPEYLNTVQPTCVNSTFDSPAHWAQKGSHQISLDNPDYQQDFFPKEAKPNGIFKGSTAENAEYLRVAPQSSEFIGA

COc1cc2c(cc1Nc1ncc(Br)c(Nc3ccc4nccnc4c3P(C)(C)=O)n1)-c1cnn(C)c1CCN2C1CC2(C1)CN(C)C2 [US20240034743, Compound 89]
IC50 [1]: < 1 nM

CNS(=O)(=O)c1ccccc1Nc1nc(Nc2cc3c(cc2OC)N(C(C)C)CCc2c-3cnn2C)ncc1Br [US20240034743, Compound 127]
IC50 [2]: > 1000 nM

COc1cc2c(cc1Nc1ncc(Br)c(Nc3ccc4nccnc4c3P(C)(C)=S)n1)-c1cnn(C)c1CCN2C1CC2(C1)CN(C)C2 [US20240034743, Compound 93]
IC50 [1]: < 1 nM

COc1cc2c(cc1Nc1ncc(C(F)(F)F)c(Nc3ccccc3P(C)(C)=O)n1)-c1cnn(C)c1CCN2C [US20240034743, Compound 26]
IC50 [2]: < 1 nM

COc1cc2c(cc1Nc1ncc(Br)c(Nc3cccc4c3NS(=O)(=O)C4)n1)-c1cnn(C)c1CCN2C(C)C [US20240034743, Compound 132]
IC50 [2]: < 1 nM

CCn1ncc2c1CCN(C)c1cc(OC)c(Nc3ncc(Br)c(Nc4ccccc4P(C)(C)=O)n3)cc1-2 [US20240034743, Compound 39]
IC50 [2]: < 1 nM

CCN1CCc2c(cnn2C)-c2cc(Nc3ncc(Br)c(Nc4ccc5nccnc5c4NS(C)(=O)=O)n3)c(OC)cc21 [US20240034743, Compound 139]
IC50 [1]: < 1 nM

COc1cc2c(cc1Nc1ncc(Br)c(Nc3ccccc3P(C)(C)=O)n1)-c1cnn(C)c1CCN2C1COC1 [US20240034743, Compound 64]
IC50 [2]: < 1 nM

COc1cc2c(cc1Nc1ncc(Br)c(Nc3ccc4nccnc4c3P(C)(C)=O)n1)-c1cnn(C)c1CCN2C1CCN(C)CC1 [US20240034743, Compound 62]
IC50 [2]: < 1 nM

COc1cc2c(cc1Nc1ncc(Cl)c(Nc3ccc4nccnc4c3P(C)(C)=O)n1)-c1cnn(C)c1CCN2C [US20240034743, Compound 13]
IC50 [1]: < 1 nM

COc1cc2c(cc1Nc1ncc(Br)c(Nc3ccc4nccnc4c3P(C)(C)=O)n1)-c1cnn(C)c1CCN2C1CC1 [US20240034743, Compound 74]
IC50 [1]: < 1 nM

COc1cc2c(cc1Nc1ncc(C)c(Nc3ccc4nccnc4c3P(C)(C)=O)n1)-c1cnn(C)c1CCN2C(C)C [US20240034743, Compound 85]
IC50 [1]: < 1 nM

COc1cc2c(cc1Nc1ncc(Br)c(Nc3ccc4nccnc4c3P(C)(C)=O)n1)-c1cnn(C)c1CCN2C(C)=O [US20240034743, Compound 15]
IC50 [2]: < 1 nM

COc1cc2c(cc1Nc1ncc(Br)c(Nc3ccccc3P(C)(C)=O)n1)-c1cnn(C)c1CCN2C1CN(CCF)C1 [US20240034743, Compound 69]
IC50 [2]: < 1 nM

COc1cc2c(cc1Nc1ncc(Br)c(Nc3ccc4nccnc4c3P(C)(C)=O)n1)-c1cnn(C)c1CCN2C1CCOCC1 [US20240034743, Compound 88]
IC50 [2]: < 1 nM

COc1cc2c(cc1Nc1ncc(Br)c(Nc3ccccc3P(C)(C)=O)n1)-c1cnc(C)n1CCN2C [US20240034743, Compound 55]
IC50 [2]: < 1 nM

COc1cc2c(cc1Nc1ncc(Br)c(Nc3ccc4nccnc4c3P(C)(C)=O)n1)-c1cnn(C)c1CCN2C [US20240034743, Compound 1]
IC50 [2]: < 1 nM

COc1cc2c(cc1Nc1ncc(Br)c(Nc3ccc4nccnc4c3P(C)(C)=O)n1)-c1cnn(C)c1CN(C)C2=O [US20240034743, Compound 9]
IC50 [2]: < 1 nM

COc1cc2c(cc1Nc1ncc(Br)c(Nc3ccc4nccnc4c3P(C)(C)=O)n1)-c1cnn(C)c1CCN2C1CN(CC2CC2)C1 [US20240034743, Compound 70]
IC50 [1]: < 1 nM

COc1cc2c(cc1Nc1ncc(Br)c(Nc3ccccc3P(C)(C)=O)n1)-c1cnn(C)c1CNC2 [US20240034743, Compound 49]
IC50 [2]: < 1 nM

COc1cc2c(cc1Nc1ncc(Br)c(Nc3ccc4nccnc4c3P(C)(C)=O)n1)-c1cnn(C)c1CCN2C1CC2(C1)CN(C(C)C)C2 [US20240034743, Compound 90]
IC50 [2]: < 1 nM

COc1cc2c(cc1Nc1ncc(Br)c(Nc3ccccc3P(C)(C)=O)n1)-c1cnn(C)c1CCC2 [US20240034743, Compound 38]
IC50 [2]: < 1 nM

COc1cc2c(cc1Nc1ncc(Br)c(Nc3ccccc3P(C)(C)=O)n1)-c1cnn(C)c1COC2 [US20240034743, Compound 46]
IC50 [2]: < 1 nM

COc1cc2c(cc1Nc1ncc(Br)c(Nc3ccccc3P(C)(C)=O)n1)-c1ccnn1CCN2C [US20240034743, Compound 29]
IC50 [2]: < 1 nM

COc1cc2c(cc1Nc1ncc(Br)c(Nc3ccc4nccnc4c3C(N)=O)n1)-c1cnn(C)c1CCN2C(C)C [US20240034743, Compound 115]
IC50 [1]: > 1000 nM

COc1cc2c(cc1Nc1ncc(Br)c(Nc3ccccc3N(C(C)C)S(C)(=O)=O)n1)-c1cnn(C)c1CCN2C(C)C [US20240034743, Compound 124]
IC50 [2]: > 1000 nM

COc1cc2c(cc1Nc1ncc(Br)c(Nc3ccccc3P(C)(C)=O)n1)-c1cnn(C)c1CCC2N (stereo not given) [US20240034743, Compound 50]
IC50 [2]: < 1 nM

COc1cc2c(cc1Nc1ncc(Br)c(Nc3ccc4nccnc4c3P(C)(C)=S)n1)-c1cnn(C)c1CCN2C1CCN(C)CC1 [US20240034743, Compound 76]
IC50 [2]: < 1 nM

COc1nc2c(cc1Nc1ncc(Br)c(Nc3ccccc3P(C)(C)=O)n1)-c1cnn(C)c1CCN2 [US20240034743, Compound 51]
IC50 [2]: < 1 nM

COc1cc2c(cc1Nc1ncc(Br)c(Nc3ccccc3NS(C)(=O)=O)n1)-c1cnn(C)c1CCN2C [US20240034743, Compound 32]
IC50 [2]: < 1 nM

COc1cc2c(cc1Nc1ncc(Br)c(Nc3ccccc3P(C)(C)=O)n1)-c1cnn(C)c1CC=C2 [US20240034743, Compound 40]
IC50 [2]: < 1 nM

COc1cc2c(cc1Nc1ncc(Br)c(Nc3ccc4nccnc4c3P(C)(C)=O)n1)-c1cnn(C)c1CCN2C1CCCN(C)C1 (stereo not given) [US20240034743, Compound 84]
IC50 [2]: < 1 nM

COc1cc2c(cc1Nc1ncc(Br)c(Nc3ccccc3P(C)(C)=O)n1)-c1cnnn1CCN2C [US20240034743, Compound 48]
IC50 [2]: < 1 nM

COc1cc2c(cc1Nc1nc(Nc3ccccc3P(C)(C)=O)c3sccc3n1)-c1cnn(C)c1CCN2C [US20240034743, Compound 58]
IC50 [2]: < 1 nM

COc1nc2c(cc1Nc1ncc(Br)c(Nc3ccccc3P(C)(C)=O)n1)-c1cnn(C)c1CCN2C [US20240034743, Compound 79]
IC50 [2]: < 1 nM

COc1cc2c(cc1Nc1ncc(Br)c(Nc3ccc4nccnc4c3NS(C)(=O)=O)n1)-c1cnn(C)c1CCN2 [US20240034743, Compound 114]
IC50 [1]: < 1 nM

COc1cc2c(cc1Nc1ncc(Br)c(Nc3ccccc3P(C)(C)=O)n1)-c1cnn(C)c1CCN2C1CN(C)C1 [US20240034743, Compound 59]
IC50 [1]: < 1 nM

COc1cc2c(cc1Nc1ncc(Br)c(Nc3ccc4nccnc4c3P(C)(C)=O)n1)-c1cnn(C)c1CCN2C1CN(C(C)C)C1 [US20240034743, Compound 63]
IC50 [1]: < 1 nM

COc1cc2c(cc1Nc1ncc(Br)c(Nc3ccccc3P(C)(C)=O)n1)-c1cnn(C)c1CCN2CC(F)(F)F [US20240034743, Compound 73]
IC50 [2]: < 1 nM

COc1cc2c(cc1Nc1ncc(Br)c(Nc3ccc4nccnc4c3NS(C)(=O)=O)n1)-c1cnn(C)c1CCN2CC(C)C [US20240034743, Compound 133]
IC50 [1]: < 1 nM
